PubChem BioAssay (NCI)
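The compound was tested at five concentrations on cells cultured in 96-well plates, with a 48-hour exposure period. TGI is the concentration that stops growth completely.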

Legend:
Assay in all cases: NCI anticancer screen, dose series, 48 h
NCI-H23 lung = system: NCI-H23 lung
SK-MEL-2 melanoma = system: SK-MEL-2 melanoma
SW-620 colon = system: SW-620 colon
K-562 leukemia = system: K-562 leukemia
HOP-62 NSCLC = system: HOP-62 NSCLC
HT29 colon = system: HT29 colon
SNB-19 CNS = system: SNB-19 CNS
A498 renal = system: A498 renal
MDA-MB-231 breast = system: MDA-MB-231 breast
786-0 renal = system: 786-0 renal
HCC-2998 colon = system: HCC-2998 colon
MOLT-4 leukemia = system: MOLT-4 leukemia
UO-31 renal = system: UO-31 renal
UACC-257 melanoma = system: UACC-257 melanoma
CCRF-CEM leukemia = system: CCRF-CEM leukemia
MCF7 breast = system: MCF7 breast
OVCAR-3 ovarian = system: OVCAR-3 ovarian
SF-539 CNS = system: SF-539 CNS
SF-295 CNS = system: SF-295 CNS
SK-MEL-5 melanoma = system: SK-MEL-5 melanoma
OVCAR-8 ovarian = system: OVCAR-8 ovarian
MDA-MB-435 = system: MDA-MB-435
SN12C renal = system: SN12C renal
HCT-15 colon = system: HCT-15 colon
COLO 205 colon = system: COLO 205 colon
SK-OV-3 ovarian = system: SK-OV-3 ovarian
U251 CNS = system: U251 CNS
RXF 393 renal = system: RXF 393 renal
EKVX NSCLC = system: EKVX NSCLC
MDA-N = system: MDA-N
SNB-75 CNS = system: SNB-75 CNS
OVCAR-4 ovarian = system: OVCAR-4 ovarian
NCI-H522 lung = system: NCI-H522 lung
SK-MEL-28 melanoma = system: SK-MEL-28 melanoma
BT-549 breast = system: BT-549 breast
IGROV1 ovarian = system: IGROV1 ovarian
KM12 colon = system: KM12 colon
HCT-116 colon = system: HCT-116 colon
OVCAR-5 ovarian = system: OVCAR-5 ovarian
T-47D breast = system: T-47D breast
HS 578T breast = system: HS 578T breast
SF-268 CNS = system: SF-268 CNS
MALME-3M melanoma = system: MALME-3M melanoma
M14 melanoma = system: M14 melanoma
TK-10 renal = system: TK-10 renal
LOX IMVI melanoma = system: LOX IMVI melanoma
NCI-H460 lung = system: NCI-H460 lung
HOP-92 NSCLC = system: HOP-92 NSCLC
NCI/ADR-RES ovarian = system: NCI/ADR-RES ovarian
ACHN renal = system: ACHN renal
HL-60(TB) leukemia = system: HL-60(TB) leukemia
A549 NSCLC = system: A549 NSCLC
CAKI-1 renal = system: CAKI-1 renal
RPMI-8226 leukemia = system: RPMI-8226 leukemia
DU-145 prostate = system: DU-145 prostate
NCI-H226 lung = system: NCI-H226 lung
PC-3 prostate = system: PC-3 prostate
UACC-62 melanoma = system: UACC-62 melanoma

C=CC(COC(=O)C(C)(C)OC(C)=O)c1ccc(OC(=O)C(C)C)c(OC)c1 (stereo not drawn)
TGI (NCI-H23 lung): 39.3 µM | TGI (SK-MEL-2 melanoma): 25.5 µM | TGI (SW-620 colon): 52.8 µM | TGI (K-562 leukemia): > 63.5 µM | TGI (HOP-62 NSCLC): 23.5 µM | TGI (HT29 colon): > 36.1 µM | TGI (SNB-19 CNS): 23.2 µM | TGI (A498 renal): 37.7 µM | TGI (MDA-MB-231 breast): 9.36 µM | TGI (786-0 renal): > 24.9 µM | TGI (HCC-2998 colon): 10.5 µM | TGI (MOLT-4 leukemia): 20.6 µM | TGI (UO-31 renal): 21.1 µM | TGI (UACC-257 melanoma): 31.5 µM | TGI (CCRF-CEM leukemia): > 22 µM | TGI (MCF7 breast): > 22.8 µM | TGI (OVCAR-3 ovarian): 28.9 µM | TGI (SF-539 CNS): 27.5 µM | TGI (SF-295 CNS): 19.9 µM | TGI (SK-MEL-5 melanoma): 27.8 µM | TGI (OVCAR-8 ovarian): > 89.3 µM | TGI (MDA-MB-435): 27.8 µM | TGI (SN12C renal): > 37 µM | TGI (HCT-15 colon): 4.88 µM | TGI (COLO 205 colon): 7.05 µM | TGI (SK-OV-3 ovarian): 30.8 µM | TGI (U251 CNS): 25.8 µM | TGI (RXF 393 renal): 19.7 µM | TGI (EKVX NSCLC): 34.1 µM | TGI (MDA-N): 14 µM | TGI (SNB-75 CNS): 22.2 µM | TGI (OVCAR-4 ovarian): 22.4 µM | TGI (NCI-H522 lung): 6.38 µM | TGI (SK-MEL-28 melanoma): 35.5 µM | TGI (BT-549 breast): 22.5 µM | TGI (IGROV1 ovarian): 34.3 µM | TGI (KM12 colon): 15.5 µM | TGI (HCT-116 colon): > 48.9 µM | TGI (OVCAR-5 ovarian): 32.5 µM | TGI (T-47D breast): > 37.2 µM | TGI (HS 578T breast): 50.8 µM | TGI (SF-268 CNS): > 43.9 µM | TGI (MALME-3M melanoma): 8.78 µM | TGI (M14 melanoma): 21.8 µM | TGI (TK-10 renal): 24.8 µM | TGI (LOX IMVI melanoma): > 33.3 µM | TGI (NCI-H460 lung): 7.78 µM | TGI (HOP-92 NSCLC): 11.7 µM | TGI (NCI/ADR-RES ovarian): > 84.9 µM | TGI (ACHN renal): 8.77 µM | TGI (HL-60(TB) leukemia): > 49 µM | TGI (A549 NSCLC): 47.5 µM | TGI (CAKI-1 renal): 4.07 µM | TGI (RPMI-8226 leukemia): > 100 µM | TGI (DU-145 prostate): 25.9 µM | TGI (NCI-H226 lung): 49.9 µM | TGI (PC-3 prostate): 27 µM | TGI (UACC-62 melanoma): 27.8 µM
